Biological target: Protease (Human immunodeficiency virus 1, UniProt Q9YQ12)
Test: Inhibition of HIV1 protease expressed in Escherichia coli incubated for 20 to 30 mins at room temperature using (Arg-Glu(EDANS)-Ser-Gln-Asn-Tyr-Pro-Ile-Val-Gln-Lys(DABCYL)-Arg) substrate by FRET method

Sequence of Protease (Q9YQ12 whole entry): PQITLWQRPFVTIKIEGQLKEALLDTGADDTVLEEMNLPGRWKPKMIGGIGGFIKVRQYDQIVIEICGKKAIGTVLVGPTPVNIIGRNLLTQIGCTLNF

| Structure (SMILES) | IC50 |
| --- | --- |
| COc1ccc(S(=O)(=O)N(CC(C)C)C[C@@H](O)[C@H](Cc2ccccc2)NC(=O)CN(CC(=O)N2CCOCC2)c2c(C)cccc2C)cc1 | 15 nM |
| COc1ccc(S(=O)(=O)N(CC(C)C)C[C@@H](O)[C@H](Cc2ccccc2)NC(=O)CN(CC(=O)N2CCOCC2)c2cccc(O)c2C)cc1 | 1380 nM |
| COc1ccc(S(=O)(=O)N(CC(C)C)C[C@@H](O)[C@H](Cc2ccccc2)NC(=O)CN(CC(=O)N(C)C)c2cccc(O)c2C)cc1 | 540 nM |
| COc1ccc(N(CC(=O)N[C@@H](Cc2ccccc2)[C@H](O)CN(CC(C)C)S(=O)(=O)c2ccc(OC)cc2)CC(=O)N2CCOCC2)cc1 | 290 nM |
| COc1ccc(N(CC(=O)N[C@@H](Cc2ccccc2)[C@H](O)CN(CC(C)C)S(=O)(=O)c2ccc(OC)cc2)CC(=O)N(C)C)cc1 | 220 nM |
| COc1ccc(S(=O)(=O)N(CC(C)C)C[C@@H](O)[C@H](Cc2ccccc2)NC(=O)CN(CC(=O)N(C)C)c2c(C)cccc2C)cc1 | 180 nM |
| Cc1c(O)cccc1N(CC(=O)N[C@@H](Cc1ccccc1)[C@H](O)CN(CC(C)C)S(=O)(=O)c1ccc([N+](=O)[O-])cc1)CC(=O)N1CCOCC1 | 6670 nM |
| Cc1c(O)cccc1N(CC(=O)N[C@@H](Cc1ccccc1)[C@H](O)CN(CC(C)C)S(=O)(=O)c1ccc([N+](=O)[O-])cc1)CC(=O)N(C)C | 610 nM |
| COc1ccc(N(CC(=O)N[C@@H](Cc2ccccc2)[C@H](O)CN(CC(C)C)S(=O)(=O)c2ccc([N+](=O)[O-])cc2)CC(=O)N2CCOCC2)cc1 | 1020 nM |
| COc1ccc(N(CC(=O)N[C@@H](Cc2ccccc2)[C@H](O)CN(CC(C)C)S(=O)(=O)c2ccc([N+](=O)[O-])cc2)CC(=O)N(C)C)cc1 | 210 nM |
| Cc1cccc(C)c1N(CC(=O)N[C@@H](Cc1ccccc1)[C@H](O)CN(CC(C)C)S(=O)(=O)c1ccc([N+](=O)[O-])cc1)CC(=O)N1CCOCC1 | 73 nM |
| Cc1cccc(C)c1N(CC(=O)N[C@@H](Cc1ccccc1)[C@H](O)CN(CC(C)C)S(=O)(=O)c1ccc([N+](=O)[O-])cc1)CC(=O)N(C)C | 290 nM |
| Cc1c(O)cccc1N(CC(=O)N[C@@H](Cc1ccccc1)[C@H](O)CN(CC(C)C)S(=O)(=O)c1ccc(N)cc1)CC(=O)N1CCOCC1 | 2730 nM |
| Cc1c(O)cccc1N(CC(=O)N[C@@H](Cc1ccccc1)[C@H](O)CN(CC(C)C)S(=O)(=O)c1ccc(N)cc1)CC(=O)N(C)C | 590 nM |
| COc1ccc(N(CC(=O)N[C@@H](Cc2ccccc2)[C@H](O)CN(CC(C)C)S(=O)(=O)c2ccc(N)cc2)CC(=O)N2CCOCC2)cc1 | 1360 nM |
| COc1ccc(N(CC(=O)N[C@@H](Cc2ccccc2)[C@H](O)CN(CC(C)C)S(=O)(=O)c2ccc(N)cc2)CC(=O)N(C)C)cc1 | 140 nM |
| Cc1cccc(C)c1N(CC(=O)N[C@@H](Cc1ccccc1)[C@H](O)CN(CC(C)C)S(=O)(=O)c1ccc(N)cc1)CC(=O)N1CCOCC1 | 64 nM |
| Cc1cccc(C)c1N(CC(=O)N[C@@H](Cc1ccccc1)[C@H](O)CN(CC(C)C)S(=O)(=O)c1ccc(N)cc1)CC(=O)N(C)C | 1360 nM |
| Cc1c(O)cccc1N(CC(=O)N[C@@H](Cc1ccccc1)[C@H](O)CN(CC(C)C)S(=O)(=O)c1ccc(CO)cc1)CC(=O)N1CCOCC1 | 1210 nM |
| Cc1c(O)cccc1N(CC(=O)N[C@@H](Cc1ccccc1)[C@H](O)CN(CC(C)C)S(=O)(=O)c1ccc(CO)cc1)CC(=O)N(C)C | 150 nM |
| COc1ccc(N(CC(=O)N[C@@H](Cc2ccccc2)[C@H](O)CN(CC(C)C)S(=O)(=O)c2ccc(CO)cc2)CC(=O)N2CCOCC2)cc1 | 890 nM |
| COc1ccc(N(CC(=O)N[C@@H](Cc2ccccc2)[C@H](O)CN(CC(C)C)S(=O)(=O)c2ccc(CO)cc2)CC(=O)N(C)C)cc1 | 370 nM |
| Cc1cccc(C)c1N(CC(=O)N[C@@H](Cc1ccccc1)[C@H](O)CN(CC(C)C)S(=O)(=O)c1ccc(CO)cc1)CC(=O)N1CCOCC1 | 73 nM |
| Cc1cccc(C)c1N(CC(=O)N[C@@H](Cc1ccccc1)[C@H](O)CN(CC(C)C)S(=O)(=O)c1ccc(CO)cc1)CC(=O)N(C)C | 290 nM |

| Structure (SMILES) | IC50 |
| --- | --- |
| COc1ccc(S(=O)(=O)N(CC(C)C)C[C@H](O)[C@H](Cc2ccccc2)NC(=O)CN(CC(=O)N2CCOCC2)c2cccc(O)c2C)cc1 | > 20000 nM |
| COc1ccc(S(=O)(=O)N(CC(C)C)C[C@H](O)[C@H](Cc2ccccc2)NC(=O)CN(CC(=O)N(C)C)c2cccc(O)c2C)cc1 | 5780 nM |
| COc1ccc(N(CC(=O)N[C@@H](Cc2ccccc2)[C@@H](O)CN(CC(C)C)S(=O)(=O)c2ccc(OC)cc2)CC(=O)N2CCOCC2)cc1 | > 20000 nM |
| COc1ccc(N(CC(=O)N[C@@H](Cc2ccccc2)[C@@H](O)CN(CC(C)C)S(=O)(=O)c2ccc(OC)cc2)CC(=O)N(C)C)cc1 | > 20000 nM |
| COc1ccc(S(=O)(=O)N(CC(C)C)C[C@H](O)[C@H](Cc2ccccc2)NC(=O)CN(CC(=O)N2CCOCC2)c2c(C)cccc2C)cc1 | 8650 nM |
| COc1ccc(S(=O)(=O)N(CC(C)C)C[C@H](O)[C@H](Cc2ccccc2)NC(=O)CN(CC(=O)N(C)C)c2c(C)cccc2C)cc1 | > 20000 nM |
| Cc1c(O)cccc1N(CC(=O)N[C@@H](Cc1ccccc1)[C@@H](O)CN(CC(C)C)S(=O)(=O)c1ccc([N+](=O)[O-])cc1)CC(=O)N1CCOCC1 | > 20000 nM |
| Cc1c(O)cccc1N(CC(=O)N[C@@H](Cc1ccccc1)[C@@H](O)CN(CC(C)C)S(=O)(=O)c1ccc([N+](=O)[O-])cc1)CC(=O)N(C)C | 7410 nM |
| COc1ccc(N(CC(=O)N[C@@H](Cc2ccccc2)[C@@H](O)CN(CC(C)C)S(=O)(=O)c2ccc([N+](=O)[O-])cc2)CC(=O)N2CCOCC2)cc1 | 19200 nM |
| COc1ccc(N(CC(=O)N[C@@H](Cc2ccccc2)[C@@H](O)CN(CC(C)C)S(=O)(=O)c2ccc([N+](=O)[O-])cc2)CC(=O)N(C)C)cc1 | > 20000 nM |
| Cc1cccc(C)c1N(CC(=O)N[C@@H](Cc1ccccc1)[C@@H](O)CN(CC(C)C)S(=O)(=O)c1ccc([N+](=O)[O-])cc1)CC(=O)N1CCOCC1 | 5870 nM |
| Cc1cccc(C)c1N(CC(=O)N[C@@H](Cc1ccccc1)[C@@H](O)CN(CC(C)C)S(=O)(=O)c1ccc([N+](=O)[O-])cc1)CC(=O)N(C)C | 5880 nM |
| Cc1c(O)cccc1N(CC(=O)N[C@@H](Cc1ccccc1)[C@@H](O)CN(CC(C)C)S(=O)(=O)c1ccc(N)cc1)CC(=O)N1CCOCC1 | 16100 nM |
| Cc1c(O)cccc1N(CC(=O)N[C@@H](Cc1ccccc1)[C@@H](O)CN(CC(C)C)S(=O)(=O)c1ccc(N)cc1)CC(=O)N(C)C | 5920 nM |
| COc1ccc(N(CC(=O)N[C@@H](Cc2ccccc2)[C@@H](O)CN(CC(C)C)S(=O)(=O)c2ccc(N)cc2)CC(=O)N2CCOCC2)cc1 | 6810 nM |
| COc1ccc(N(CC(=O)N[C@@H](Cc2ccccc2)[C@@H](O)CN(CC(C)C)S(=O)(=O)c2ccc(N)cc2)CC(=O)N(C)C)cc1 | 6960 nM |
| Cc1cccc(C)c1N(CC(=O)N[C@@H](Cc1ccccc1)[C@@H](O)CN(CC(C)C)S(=O)(=O)c1ccc(N)cc1)CC(=O)N1CCOCC1 | 2590 nM |
| Cc1cccc(C)c1N(CC(=O)N[C@@H](Cc1ccccc1)[C@@H](O)CN(CC(C)C)S(=O)(=O)c1ccc(N)cc1)CC(=O)N(C)C | 490 nM |
| Cc1c(O)cccc1N(CC(=O)N[C@@H](Cc1ccccc1)[C@@H](O)CN(CC(C)C)S(=O)(=O)c1ccc(CO)cc1)CC(=O)N1CCOCC1 | 6120 nM |
| Cc1c(O)cccc1N(CC(=O)N[C@@H](Cc1ccccc1)[C@@H](O)CN(CC(C)C)S(=O)(=O)c1ccc(CO)cc1)CC(=O)N(C)C | > 20000 nM |
| COc1ccc(N(CC(=O)N[C@@H](Cc2ccccc2)[C@@H](O)CN(CC(C)C)S(=O)(=O)c2ccc(CO)cc2)CC(=O)N2CCOCC2)cc1 | > 20000 nM |
| COc1ccc(N(CC(=O)N[C@@H](Cc2ccccc2)[C@@H](O)CN(CC(C)C)S(=O)(=O)c2ccc(CO)cc2)CC(=O)N(C)C)cc1 | 5340 nM |
| Cc1cccc(C)c1N(CC(=O)N[C@@H](Cc1ccccc1)[C@@H](O)CN(CC(C)C)S(=O)(=O)c1ccc(CO)cc1)CC(=O)N1CCOCC1 | 8940 nM |
| Cc1cccc(C)c1N(CC(=O)N[C@@H](Cc1ccccc1)[C@@H](O)CN(CC(C)C)S(=O)(=O)c1ccc(CO)cc1)CC(=O)N(C)C | 17300 nM |
